According to patent publication US12077503B2, “Substituted cyclic amides and their use as herbicides” (FMC CORPORATION, priority 2015, dated 2024):

Tests used:
Type in all cases: in vivo
[1] = system: ivy-leaved morning glory (Ipomoea hederacea); assay: Test G Post-Emergence Protocol; conditions: Ipomoea, post-emergence, 312 h, read-out: Morningglory, Ivy-leaved damage rating; for pest or weed control at 15.625 g/ha: 15.625 g ai/ha, evaluated after 13 days (100=total damage to plant; 0=no damage to plant); for pest or weed control at 62.5 g/ha: 62.5 g ai/ha; for pest or weed control at 62.5 g/ha / pest or weed control at 250 g/ha: evaluated after 13 days, 100=total damage to plant, 0=no damage to plant; for pest or weed control at 250 g/ha: 250 g ai/ha
How it was run: (§1)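 Eight days post-sowing, plants received a spray of test compound (acetone/water 50:50, 0.5% Tween 20) at 15.625, 62.5 or 250 g/ha. Glasshouse regime thereafter: 24/16 °C, 14 h light, 65% humidity. Assessment after 13 days on a 0–100 damage scale.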

corn (Zea mays) [2] = assay: Test G Post-Emergence Protocol; conditions: Zea mays, post-emergence, 312 h, read-out: Corn damage rating; for plant injury at 15.625 g/ha: 15.625 g ai/ha, evaluated after 13 days (100=total damage to plant; 0=no damage to plant); for plant injury at 62.5 g/ha: 62.5 g ai/ha; for plant injury at 62.5 g/ha / plant injury at 250 g/ha: evaluated after 13 days, 100=total damage to plant, 0=no damage to plant; for plant injury at 250 g/ha: 250 g ai/ha
How it was run: as §1

[3] = system: barnyardgrass (Echinochloa crus-galli); assay: Test G Post-Emergence Protocol; conditions: Echinochloa crus-galli, post-emergence, 312 h, read-out: Barnyardgrass damage rating; for pest or weed control at 15.625 g/ha: 15.625 g ai/ha, evaluated after 13 days (100=total damage to plant; 0=no damage to plant); for pest or weed control at 62.5 g/ha: 62.5 g ai/ha; for pest or weed control at 62.5 g/ha / pest or weed control at 250 g/ha: evaluated after 13 days, 100=total damage to plant, 0=no damage to plant; for pest or weed control at 250 g/ha: 250 g ai/ha
How it was run: as §1

[4] = system: redroot pigweed (Amaranthus retroflexus); assay: Test G Post-Emergence Protocol; conditions: Amaranthus retroflexus, post-emergence, 312 h, read-out: Pigweed, Redroot damage rating; for pest or weed control at 15.625 g/ha: 15.625 g ai/ha, evaluated after 13 days (100=total damage to plant; 0=no damage to plant); for pest or weed control at 62.5 g/ha: 62.5 g ai/ha; for pest or weed control at 62.5 g/ha / pest or weed control at 250 g/ha: evaluated after 13 days, 100=total damage to plant, 0=no damage to plant; for pest or weed control at 250 g/ha: 250 g ai/ha
How it was run: as §1

[5] = system: giant foxtail (Setaria faberi); assay: Test G Post-Emergence Protocol; conditions: Setaria faberi, post-emergence, 312 h, read-out: Foxtail, Giant damage rating; for pest or weed control at 15.625 g/ha: 15.625 g ai/ha, evaluated after 13 days (100=total damage to plant; 0=no damage to plant); for pest or weed control at 62.5 g/ha: 62.5 g ai/ha; for pest or weed control at 62.5 g/ha / pest or weed control at 250 g/ha: evaluated after 13 days, 100=total damage to plant, 0=no damage to plant; for pest or weed control at 250 g/ha: 250 g ai/ha
How it was run: as §1

[6] = system: velvetleaf (Abutilon theophrasti); assay: Test G Post-Emergence Protocol; conditions: Abutilon theophrasti, post-emergence, 312 h, read-out: Velvetleaf damage rating; for pest or weed control at 15.625 g/ha: 15.625 g ai/ha, evaluated after 13 days (100=total damage to plant; 0=no damage to plant); for pest or weed control at 62.5 g/ha: 62.5 g ai/ha; for pest or weed control at 62.5 g/ha / pest or weed control at 250 g/ha: evaluated after 13 days, 100=total damage to plant, 0=no damage to plant; for pest or weed control at 250 g/ha: 250 g ai/ha
How it was run: as §1

[7] = system: ivy-leaved morning glory (Ipomoea hederacea); assay: Test G Pre-Emergence Protocol; conditions: Ipomoea, pre-emergence, 312 h, evaluated after 13 days; for pest or weed control at 15.625 g/ha: 15.625 g ai/ha; for pest or weed control at 15.625 g/ha / pest or weed control at 250 g/ha: read-out: Morningglory, Ivy-leaved damage rating (100=total damage to plant; 0=no damage to plant); for pest or weed control at 62.5 g/ha: 62.5 g ai/ha, 100=total damage to plant, 0=no damage to plant, read-out: Morningglory, Ivy-leaved damage rating; for pest or weed control at 250 g/ha: 250 g ai/ha
How it was run: (§2)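 One day after sowing, pots are treated with a spray of test compound formulated in acetone/water 50:50 plus 0.5% Tween 20, giving 15.625, 62.5 or 250 g/ha. Evaluation on a 0–100 damage scale follows 13 days of glasshouse growth.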

corn (Zea mays) [8] = assay: Test G Pre-Emergence Protocol; conditions: Zea mays, pre-emergence, 312 h, evaluated after 13 days; for plant injury at 15.625 g/ha: 15.625 g ai/ha; for plant injury at 15.625 g/ha / plant injury at 250 g/ha: read-out: Corn damage rating (100=total damage to plant; 0=no damage to plant); for plant injury at 62.5 g/ha: 62.5 g ai/ha, 100=total damage to plant, 0=no damage to plant, read-out: Corn damage rating; for plant injury at 250 g/ha: 250 g ai/ha
How it was run: as §2

[9] = system: barnyardgrass (Echinochloa crus-galli); assay: Test G Pre-Emergence Protocol; conditions: Echinochloa crus-galli, pre-emergence, 312 h, evaluated after 13 days; for pest or weed control at 15.625 g/ha: 15.625 g ai/ha; for pest or weed control at 15.625 g/ha / pest or weed control at 250 g/ha: read-out: Barnyardgrass damage rating (100=total damage to plant; 0=no damage to plant); for pest or weed control at 62.5 g/ha: 62.5 g ai/ha, 100=total damage to plant, 0=no damage to plant, read-out: Barnyardgrass damage rating; for pest or weed control at 250 g/ha: 250 g ai/ha
How it was run: as §2

[10] = system: redroot pigweed (Amaranthus retroflexus); assay: Test G Pre-Emergence Protocol; conditions: Amaranthus retroflexus, pre-emergence, 312 h, evaluated after 13 days; for pest or weed control at 15.625 g/ha: 15.625 g ai/ha; for pest or weed control at 15.625 g/ha / pest or weed control at 250 g/ha: read-out: Pigweed, Redroot damage rating (100=total damage to plant; 0=no damage to plant); for pest or weed control at 62.5 g/ha: 62.5 g ai/ha, 100=total damage to plant, 0=no damage to plant, read-out: Pigweed, Redroot damage rating; for pest or weed control at 250 g/ha: 250 g ai/ha
How it was run: as §2

[11] = system: giant foxtail (Setaria faberi); assay: Test G Pre-Emergence Protocol; conditions: Setaria faberi, pre-emergence, 312 h, evaluated after 13 days; for pest or weed control at 15.625 g/ha: 15.625 g ai/ha; for pest or weed control at 15.625 g/ha / pest or weed control at 250 g/ha: read-out: Foxtail, Giant damage rating (100=total damage to plant; 0=no damage to plant); for pest or weed control at 62.5 g/ha: 62.5 g ai/ha, 100=total damage to plant, 0=no damage to plant, read-out: Foxtail, Giant damage rating; for pest or weed control at 250 g/ha: 250 g ai/ha
How it was run: as §2

[12] = system: velvetleaf (Abutilon theophrasti); assay: Test G Pre-Emergence Protocol; conditions: Abutilon theophrasti, pre-emergence, 312 h, evaluated after 13 days; for pest or weed control at 15.625 g/ha: 15.625 g ai/ha; for pest or weed control at 15.625 g/ha / pest or weed control at 250 g/ha: read-out: Velvetleaf damage rating (100=total damage to plant; 0=no damage to plant); for pest or weed control at 62.5 g/ha: 62.5 g ai/ha, 100=total damage to plant, 0=no damage to plant, read-out: Velvetleaf damage rating; for pest or weed control at 250 g/ha: 250 g ai/ha
How it was run: as §2

| Compound | pest or weed control at 15.625 g/ha [1] | pest or weed control at 62.5 g/ha [1] | pest or weed control at 250 g/ha [1] | plant injury at 15.625 g/ha (corn (Zea mays) [2]) | plant injury at 62.5 g/ha (corn (Zea mays) [2]) | plant injury at 250 g/ha (corn (Zea mays) [2]) | pest or weed control at 15.625 g/ha [3] | pest or weed control at 62.5 g/ha [3] | pest or weed control at 250 g/ha [3] | pest or weed control at 15.625 g/ha [4] | pest or weed control at 62.5 g/ha [4] | pest or weed control at 250 g/ha [4] | pest or weed control at 15.625 g/ha [5] | pest or weed control at 62.5 g/ha [5] | pest or weed control at 250 g/ha [5] | pest or weed control at 15.625 g/ha [6] | pest or weed control at 62.5 g/ha [6] | pest or weed control at 250 g/ha [6] | pest or weed control at 15.625 g/ha [7] | pest or weed control at 62.5 g/ha [7] | other results |
| --- | --- | --- | --- | --- | --- | --- | --- | --- | --- | --- | --- | --- | --- | --- | --- | --- | --- | --- | --- | --- | --- |
| CN1C[C@H](c2cccc(C(F)(F)F)c2)[C@@H](C(=O)Nc2cc(C#N)ccn2)C1=O (racemic) [Compound 1735] | 0% | 0% | 0% | 0% | 0% | 0% | 0% | 0% | 0% | 0% | 0% | 0% | 0% | 0% | 0% | 0% | 0% | 0% | 0% | 0% | pest or weed control at 250 g/ha [7]: 0%; plant injury at 15.625 g/ha (corn (Zea mays) [8]): 0%; plant injury at 62.5 g/ha (corn (Zea mays) [8]): 0%; plant injury at 250 g/ha (corn (Zea mays) [8]): 0%; pest or weed control at 15.625 g/ha [9]: 0%; pest or weed control at 62.5 g/ha [9]: 0%; pest or weed control at 250 g/ha [9]: 0%; pest or weed control at 15.625 g/ha [10]: 0%; pest or weed control at 62.5 g/ha [10]: 0%; pest or weed control at 250 g/ha [10]: 0%; pest or weed control at 15.625 g/ha [11]: 0%; pest or weed control at 62.5 g/ha [11]: 0%; pest or weed control at 250 g/ha [11]: 0%; pest or weed control at 15.625 g/ha [12]: 0%; pest or weed control at 62.5 g/ha [12]: 0%; pest or weed control at 250 g/ha [12]: 0% |
| CN1C[C@H](c2ccc(C(F)(F)F)cc2)[C@@H](C(=O)Nc2cccc3c2C(=O)OC3)C1=O (racemic) [Compound 1669] | 0% | 20% | 60% | 10% | 0% | 0% | 0% | 30% | 70% | 0% | 0% | 30% | 30% | 50% | 80% | 0% | 0% | 0% | 0% | 0% | pest or weed control at 250 g/ha [7]: 10%; plant injury at 15.625 g/ha (corn (Zea mays) [8]): 0%; plant injury at 62.5 g/ha (corn (Zea mays) [8]): 0%; plant injury at 250 g/ha (corn (Zea mays) [8]): 0%; pest or weed control at 15.625 g/ha [9]: 0%; pest or weed control at 62.5 g/ha [9]: 0%; pest or weed control at 250 g/ha [9]: 10%; pest or weed control at 15.625 g/ha [10]: 0%; pest or weed control at 62.5 g/ha [10]: 10%; pest or weed control at 250 g/ha [10]: 20%; pest or weed control at 15.625 g/ha [11]: 0%; pest or weed control at 62.5 g/ha [11]: 20%; pest or weed control at 250 g/ha [11]: 60%; pest or weed control at 15.625 g/ha [12]: 0%; pest or weed control at 62.5 g/ha [12]: 0%; pest or weed control at 250 g/ha [12]: 10% |
